According to PMC11926788, “Effect of SSR504734, a Selective Glycine Transporter Type 1 Inhibitor, on Seizure Thresholds, Neurotransmitter Levels, and Inflammatory Markers in Mice” (ACS Chemical Neuroscience, 2025):
Where a name gives a salt, the structure may show the parent alone. Read-outs that look alike come from different tables or passages of the source.

What was measured:
[1] = tested on: 6 Hz-induced psychomotor seizures in mice; assay: 6 Hz-induced psychomotor seizure threshold test; type: in vivo; conditions: SSR504734 any of the doses tested, VPA 150 mg/kg
Experimental: Psychomotor seizures were induced through the application of rectangular pulses (0.2 ms width; 6 pulses per second) for 3 s using a Grass model CCU1 constant current unit coupled to a Grass S48 stimulator (Grass Technologies, Warwick, RI, USA). Stimuli were delivered via saline-soaked transcorneal electrodes. An ocular anesthetic (1% tetracaine hydrochloride) was administered on the animal’s corneas. Mice were restrained manually during stimulation and placed in transparent box immediately for behavioral observation. 6 Hz-induced seizures were characterized by head-nodding, chewing, eye-blinking, twitching of the vibrissae, rearing, stunned posture, forelimb clonus, and Straub tail. The absence of the described features or the return to normal exploratory behavior within 20 s poststimulation was considered as the absence of seizures. The 6 Hz seizure threshold test were conducted on groups of 20 animals stimulated with different current intensities by using the “up-and-down” method described by Kimball et al.[28]
The seizure threshold was quantified as the median current strength (CS50 value with confidence limits for 95% probability), predicting the induction of psychomotor seizures in 50% of the tested animals.

[2] = Pharmacokinetic study of SSR504734 in mice (serum and tissue concentrations by LC-MS/MS, noncompartmental analysis); type: in vivo
Experimental: SSR504734 was administered i.p. at the dose of 30 mg/kg, and mice were sacrificed by decapitation at 5, 15, 30, 60, 120, 240, and 480 min after dosing. The trunk blood samples (∼1 mL) were collected in polypropylene tubes and allowed to clot at room temperature. Subsequently, the blood was centrifuged at 5600 rpm for 10 min. Serum samples were collected in new tubes. Immediately after decapitation, brains and other tissues such as the liver, lungs, kidneys, heart, spleen, gut, and adipose were removed from the skull and washed with cold 0.9% NaCl. Samples were kept at −80 °C until the day of analysis.
Serum and tissue concentrations of SSR504734 in mice were quantified by a liquid chromatography tandem mass spectrometry (LC-MS/MS) method. Stock solutions of the studied compound were prepared in methanol at a concentration of 1 mg/mL. Working solutions were prepared by dilution of the standard solutions in acetonitrile/water 1:1 (v/v). Tissue homogenates were obtained by homogenization of each tissue in distilled water at a ratio of 1:4 (w/v) using a basic T10 ULTRA-TURRAX tissue homogenizer (IKA, Poland). Mouse serum and tissues, which were used to prepare standard samples and quality control (QC) samples, were harvested from untreated healthy animals after exsanguination. Standard and QC samples were prepared by adding 5 μL of working solutions of SSR504734 to 45 μL of mouse serum or 45 μL of tissue homogenates. Real serum and homogenate samples, QC samples, and standard samples were subjected to the same precipitation procedure. Briefly, 150 μL of 0.1% formic acid solution in acetonitrile containing pentoxifylline (PTX) as an internal standard (IS) at a concentration of 5 ng/mL was added to 50 μL of analyzed serum, homogenate, standard samples, or QC samples in Eppendorf tubes and mixed on a vortex mixer for 10 min (IKA Vibrax VXR, Germany). Subsequently, samples were centrifuged at 10,000 rpm for 10 min at room temperature (Eppendorf miniSpin centrifuge). 2 μL of supernatant was subjected to LC-MS/MS analysis using an Exion LC AC HPLC system coupled to a SCIEX QTRAP 4500 triple-quadrupole mass spectrometer (Danaher Corporation, Framingham, MA, US). Chromatographic separation was performed using a Hypersil Gold C18 analytical column (2.1 × 50 mm, 3 μm) (Thermo Scientific, USA) at 25 °C. The mobile phase consisting of water containing 0.1% formic acid and acetonitrile containing 0.1% formic acid (60:40, v/v) was pumped at a flow rate of 0.5 mL/min in an isocratic elution mode. All detections were performed in positive ion mode. The selected reaction monitoring (SRM) for the transitions was m/z 397.2 → 207.0 and m/z 397.2 → 174.2 (quantifier and qualifier) for SSR504734 and m/z 279 → 181 for IS. The optimal MS parameters for SSR504734 multiple reaction monitoring (MRM) transitions selected by continuous infusion of the standard solution at the rate of 7 μL/min using a Harvard infusion pump were as follows: the declustering potential was 120 V, the collision energy was 35.6 V, the entrance potential was 10 V, and the cell exit potential was 6 V. These parameters for IS were 60, 24, 10, and 6 V, respectively. An additional tuning optimization of gas flows and temperatures was performed by flow injection analysis. The ion source temperature was maintained at 450 °C, the ion spray voltage at 4000 V, the curtain gas (CUR) was set at 25 psi, the nebulizer (GS1) and TIS (GS2) gases at 40.0 and 50.0 psi, respectively, and the collision gas (CAD) at Medium.
Data acquisition and processing were carried out using Analyst 1.7 software. The calibration curves were constructed by plotting the ratio of the peak area of the analyte to the peak area of the IS vs the concentration of the analyte and generated by weighted (1/y) nonlinear regression analysis by fitting a quadratic formula. […]

[3] = mouse, ip, adipose, single 30 mg/kg i.p.
[4] = mouse, ip, brain, single 30 mg/kg i.p.
[5] = mouse, ip, gut, single 30 mg/kg i.p.
[6] = mouse, ip, heart, single 30 mg/kg i.p.
[7] = mouse, ip, kidneys, single 30 mg/kg i.p.
[8] = mouse, ip, liver, single 30 mg/kg i.p.
[9] = mouse, ip, lungs, single 30 mg/kg i.p.
[10] = mouse, ip, serum, single 30 mg/kg i.p.
[11] = mouse, ip, spleen, single 30 mg/kg i.p.

SMILES: O=C(NC(c1ccccc1)C1CCCCN1)c1cccc(C(F)(F)F)c1Cl [SSR504734, 2-chloro-N-[(S)-phenyl[(2S)-piperidin-2-yl]methyl]-3-trifluoromethyl benzamide monohydrochloride]
- effect on current intensity necessary to induce psychomotor seizures ([1]; 14-day administration i.p.): no statistically significant effect
- effect on current intensity necessary to induce psychomotor seizures ([1]; single administration i.p.): no statistically significant effect
- AUClast ([2]; adipose, single 30 mg/kg i.p.): 3347.89 µg·min/mL (g tissue)
- AUClast ([2]; brain, single 30 mg/kg i.p.): 1137.50 µg·min/mL (g tissue)
- Kp (tissue-to-serum partition coefficient, AUClast(tissue)/AUClast(serum)) ([2]; brain, single 30 mg/kg i.p., 30 mg/kg): 3.05
- AUClast ([2]; gut, single 30 mg/kg i.p.): 10606.43 µg·min/mL (g tissue)
- AUClast ([2]; heart, single 30 mg/kg i.p.): 4841.83 µg·min/mL (g tissue)
- AUClast ([2]; kidneys, single 30 mg/kg i.p.): 16781.00 µg·min/mL (g tissue)
- AUClast ([2]; liver, single 30 mg/kg i.p.): 8821.36 µg·min/mL (g tissue)
- AUClast ([2]; lungs, single 30 mg/kg i.p.): 33485.57 µg·min/mL (g tissue)
- Kp ([2]; mouse, adipose (relative to serum), ip, 30 mg/kg, adipose, single 30 mg/kg i.p., read-out: Kp (tissue-to-serum partition coefficient)): 8.98
- Kp ([2]; mouse, brain (relative to serum), ip, 30 mg/kg, brain, single 30 mg/kg i.p., read-out: Kp (tissue-to-serum partition coefficient, AUClast(tissue)/AUClast(serum))): > 3
- Kp ([2]; mouse, gut (relative to serum), ip, 30 mg/kg, gut, single 30 mg/kg i.p., read-out: Kp (tissue-to-serum partition coefficient)): 28.5
- Kp ([2]; mouse, heart (relative to serum), ip, 30 mg/kg, heart, single 30 mg/kg i.p., read-out: Kp (tissue-to-serum partition coefficient)): 13
- Cmax ([2]; mouse, ip, 30 mg/kg i.p., assuming brain tissue density of ∼1 g/mL, read-out: Cmax in the brain tissue): 5150 ng/mL
- MRT [2, 3]: 1.37 h
- Tmax [2, 3]: 0.0833 h
- half-life [2, 3]: 1.33 h
- Cmax ([2]; mouse, ip, adipose, single 30 mg/kg i.p., read-out: Cmax): 65700 ng/g
- MRT [2, 4]: 2.36 h
- Tmax [2, 4]: 0.5 h
- half-life [2, 4]: 1.75 h
- Cmax ([2]; mouse, ip, brain, single 30 mg/kg i.p., read-out: Cmax): 5150 ng/g
- CL/F ([2]; mouse, ip, from serum vs time profile, 30 mg/kg i.p., read-out: apparent clearance (CL/F)): 77.8 mL/min/kg
- Vd/F ([2]; mouse, ip, from serum vs time profile, 30 mg/kg i.p., read-out: volume of distribution during the terminal phase (Vz/F)): 11.1 L/kg
- MRT [2, 5]: 1.96 h
- Tmax [2, 5]: 0.0833 h
- half-life [2, 5]: 1.73 h
- Cmax ([2]; mouse, ip, gut, single 30 mg/kg i.p., read-out: Cmax): 77900 ng/g
- MRT [2, 6]: 1.68 h
- Tmax [2, 6]: 0.25 h
- half-life [2, 6]: 1.31 h
- Cmax ([2]; mouse, ip, heart, single 30 mg/kg i.p., read-out: Cmax): 38300 ng/g
- MRT [2, 7]: 2.03 h
- Tmax [2, 7]: 0.5 h
- half-life [2, 7]: 1.4 h
- Cmax ([2]; mouse, ip, kidneys, single 30 mg/kg i.p., read-out: Cmax): 93500 ng/g
- MRT [2, 8]: 1.76 h
- Tmax [2, 8]: 0.0833 h
- half-life [2, 8]: 1.52 h
- Cmax ([2]; mouse, ip, liver, single 30 mg/kg i.p., read-out: Cmax): 101000 ng/g
- MRT [2, 9]: 2.6 h
- Tmax [2, 9]: 0.25 h
- half-life [2, 9]: 2.04 h
- Cmax ([2]; mouse, ip, lungs, single 30 mg/kg i.p., read-out: Cmax): 147000 ng/g
- MRT [2, 10]: 1.86 h
- Tmax [2, 10]: 0.25 h
- half-life [2, 10]: 1.65 h
- Cmax ([2]; mouse, ip, serum, single 30 mg/kg i.p., read-out: Cmax): 3000 ng/mL
- MRT [2, 11]: 1.66 h
- Tmax [2, 11]: 0.25 h
- half-life [2, 11]: 1.6 h
- Cmax ([2]; mouse, ip, spleen, single 30 mg/kg i.p., read-out: Cmax): 193000 ng/g
- Kp ([2]; mouse, kidneys (relative to serum), ip, 30 mg/kg, kidneys, single 30 mg/kg i.p., read-out: Kp (tissue-to-serum partition coefficient)): 45
- Kp ([2]; mouse, liver (relative to serum), ip, 30 mg/kg, liver, single 30 mg/kg i.p., read-out: Kp (tissue-to-serum partition coefficient)): 23.7
- Kp ([2]; mouse, lungs (relative to serum), ip, 30 mg/kg, lungs, single 30 mg/kg i.p., read-out: Kp (tissue-to-serum partition coefficient)): 89.8
- Kp ([2]; mouse, spleen (relative to serum), ip, 30 mg/kg, spleen, single 30 mg/kg i.p., read-out: Kp (tissue-to-serum partition coefficient)): 50
- AUClast ([2]; serum, single 30 mg/kg i.p.): 372.73 µg·min/mL (g tissue)
- AUClast ([2]; spleen, single 30 mg/kg i.p.): 18616.26 µg·min/mL (g tissue)
